Results on 12 compounds are retold here after patent US11427615B2, “Peptide compound and application thereof, and composition containing peptide compound” (XDCEXPLORER (SHANGHAI) CO., LTD., priority 2017, dated 2022).

Molecules are shown by their SMILES. Like-named read-outs stand apart in the source and are kept apart here. Non-standard residues stand in square brackets, D forms with d. Residues, ends and D or L forms follow the SMILES beside them. Groups on a side chain read outwards from the residue. *: point of attachment. X1 = CCCCCCCCCCCC(=O)NCCOCCOCCOCCOCCOCCSC1CC(=O)N(CCCC(=O)*)C1=O; X2 = CCCCCCCCCCCC(=O)NCCOCCOCCOCCOCCOCCn1cc(CC(=O)*)nn1; dPhe(2,4-Cl2) = N[C@H](Cc1ccc(Cl)cc1Cl)C(=O)O; PEG8 = NCCOCCOCCOCCOCCOCCOCCOCCOCCC(=O)O; Pro(4,4-F2) = O=C(O)[C@@H]1CC(F)(F)CN1; dAla(2-furyl) = N[C@H](Cc1ccco1)C(=O)O; Arg(Me) = CNC(=N)NCCC[C@H](N)C(=O)O; Palmitoyl = CCCCCCCCCCCCCCCC(=O)*; Hyp = O=C(O)[C@@H]1C[C@@H](O)CN1; AllylGly = C=CC[C@H](N)C(=O)O; PEG4 = NCCOCCOCCOCCOCCC(=O)O; Pip = O=C(O)[C@@H]1CCCCN1; Ac6c = NC1(C(=O)O)CCCCC1; azaGly = NNC(=O)O

Series [1] is described as follows: Plasma stability, LC-MS/MS. Format: in vitro ADME. The following applies: rat plasma, 37° C., final concentration 500 ng/ml, time points 0 minutes, 1, 2 and 4 hours; calculated half-life; read-out: Rat plasma (T½ (h)) (converted). The protocol: Effect Embodiment 2 Experimental Data on Plasma Stability of Some Compounds
1. Preparation of 50 mM Phosphate Buffer:
The 5.750 g Na2HPO4, 1.141 g NaH2PO4. and 4.095 g NaCl (Shanghai Titan) weighed was dissolved in 1000 mL ultrapure water and the pH was adjusted to 7.4 to give 50 mM phosphate buffer containing 70 mM NaCl. The prepared phosphoric acid buffer solution was stored in the refrigerator at 4° C. and was valid for one week.
2. Preparation of compound stock solution:
1). 5 mg/mL of test compound: 5 mg of compound was weighted and dissolved in 1 mL of DMSO.
2). 20 mM control: 2.728 mg of Fuka was dissolved in 0.5 mL of DMSO. 3.878 mg of benzalkonium bromide was dissolved in 0.5 mL of DMSO (Amresco).
3. Preparation of experimental plasma:
The frozen plasma (human: Shanghai wise chemistry; Rats and mice: Shanghai Sciple-Bikai; Dogs and monkeys: Suzhou Xishan Zhongke) were taken out of the −80° C. refrigerator, immediately placed in a 37° C. water bath, slightly shaken to melt it, then the thawed plasma was poured into a centrifuge tube, centrifuged at 3000 rpm for 8 min, and the supernatant was taken for experiments. The pH value of plasma was detected by a pH Meter & Sensor (METTLER TOLEDO). Only plasma with a pH value between 7.4 and 8 was used in the experiment. The plasma was placed on an ice bath for later use.
4. Preparation of administration solution:
1). 125 µg/ml test compound solution: 5 μL of 5 mg/mL test compound (see step 2) was added into 195 μL DMSO; 500 μM control solution: 20 mM control stock solution (see step 2) was added to 195 μL DMSO.
2). 0.5% BSA phosphate buffer solution: 0.05 g BSA was added to 10 mL phosphate buffer solution (see step 1);
3). 5 µg/ml of test compound administration solution: 40 μL of 125 μg/mL of test compound solution was added into 960 μL 0.5% BSA phosphate buffer solution, stirred and mixed evenly, and the administration solution was preheated in a 37° C. water bath for 5 minutes.
20 μM reference substance administration solution: 40 μL of 500 μM reference substance administration solution was added into 960 μL 0.5% BSA phosphate buffer solution, stirred and mixed evenly, and the administration solution was preheated in a 37° C. water bath for 5 minutes.
5. 10 μL of 5 μg/mL of the test compound and 20 μM of the control substance administration solution were respectively added to the wells set at different time points (0 minutes, 1 hour, 2 hours and 4 hours) on the 96-well plate, and the number of duplicate samples was 3.
6. 500 μL of ACN (IS) containing 5% FA was added to the well set at 0 minute hour, then 90 μL of plasma was added, after mixing, sealing film was pasted and placed at 4° C. (number of duplicate samples was 3).
7. 90 μL of plasma was added to the wells with set time points of 1 hour, 2 hours and 4 hours respectively, the number of duplicate samples was 3, and timing was started (the final concentration of the test compound was 500 ng/ml; The control was 2 μM).
9. All samples (0 minutes, 1 hour, 2 hours and 4 hours) at different time points on a 96-well plate were shaken for 10 minutes at 600 rpm/min on an oscillator (MTS 2/4, IKA), and then the samples were centrifuged for 15 minutes at 5594×g in a centrifuge (Multifuge×3R, thermo Fisher).
10. 150 μL of supernatant was taken from the centrifuged sample and sent to LC-MS/MS for analysis (conventional polypeptide LC-MS/MS analysis method).

Series [2] concerns the target T1, human kiss1 receptor (GPR54) (Homo sapiens, UniProt Q969F8).
T1 construct: host or cells: NFAT-bla CHO-K1 cells (Chinese hamster ovary), purchased recombinant cell line
The series can be described thus: Kiss1 receptor (GPR54) binding activity of agonists, FRET detection in NFAT-bla CHO-K1 cells. Format: cell-based.

Setting [3] is: GPR54, measured according to the method of effect Embodiment 1, preliminary data, read-out: Preliminary measurement data (GPR54) EC50.

T1 sequence (Q969F8 whole entry): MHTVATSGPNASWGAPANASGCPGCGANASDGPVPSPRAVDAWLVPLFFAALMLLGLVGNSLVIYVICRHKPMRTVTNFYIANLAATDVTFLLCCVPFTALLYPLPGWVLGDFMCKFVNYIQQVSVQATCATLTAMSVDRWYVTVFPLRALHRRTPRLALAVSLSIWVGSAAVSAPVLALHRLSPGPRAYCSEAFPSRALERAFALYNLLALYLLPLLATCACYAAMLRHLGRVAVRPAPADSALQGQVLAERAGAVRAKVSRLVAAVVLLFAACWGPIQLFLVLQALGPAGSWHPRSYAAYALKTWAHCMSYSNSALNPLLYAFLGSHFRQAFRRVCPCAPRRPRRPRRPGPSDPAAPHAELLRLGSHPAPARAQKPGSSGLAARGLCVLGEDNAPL

As to `CNC(=N)NCCC[C@H](NC(=O)[C@H](CC(C)C)NC(=O)NNC(=O)[C@H](Cc1ccccc1)NC(=O)[C@@H](NC(=O)[C@H](CC(N)=O)NC(=O)[C@@H]1C[C@@H](O)CN1C(=O)[C@@H](Cc1ccc(O)cc1)NC(C)=O)[C@@H](C)O)C(=O)N[C@@H](Cc1c[nH]c2ccccc12)C(N)=O` [YA-3, Ac-(D-Tyr)-Hyp-Asn-Thr-Phe-azaGly-Leu-Arg(Me)-trp-NH2] (Ac-[dY][Hyp]NTF[azaGly]L[Arg(Me)]W-NH2), the half-life at 500 ng/ml in series [1] is 10.1 h. Besides, the EC50 in series [2] (setting [3]) was found to be 0.03 nM; in series [2] (NFAT-bla CHO-K1 cells that express human kiss1 receptor (GPR54), FRET, cells cultured with compound for 4 hours, read-out: GPR54 EC50/nM) it was 0.03 nM. As to `CNC(=N)NCCC[C@H](NC(=O)[C@H](CC(C)C)NC(=O)NNC(=O)[C@H](Cc1ccccc1)NC(=O)[C@@H](NC(=O)[C@H](CC(N)=O)NC(=O)[C@@H]1C[C@@H](O)CN1C(=O)[C@@H](Cc1ccc(O)cc1)NC(=O)CCOCCOCCOCCOCCNC(C)=O)[C@@H](C)O)C(=O)N[C@@H](Cc1c[nH]c2ccccc12)C(N)=O` [YA-150, Ac-PEG4-(D-Tyr)-Hyp-Asn-Thr-Phe-azaGly-Leu-Arg(Me)-Trp-NH2] (Ac-[PEG4][dY][Hyp]NTF[azaGly]L[Arg(Me)]W-NH2), in series [1], the half-life at 500 ng/ml is 6.67 h. In series [2] (setting [3]), the EC50 was 0.004 nM. The matching figures for `CCCCCCCCCCCCCCCC(=O)NCCOCCOCCOCCOCCOCCOCCOCCOCCC(=O)NCC(=O)NCC(=O)N[C@H](Cc1ccc(O)cc1)C(=O)N1C[C@H](O)C[C@H]1C(=O)N[C@@H](CC(N)=O)C(=O)N[C@H](C(=O)N[C@@H](Cc1ccccc1)C(=O)NNC(=O)N[C@@H](CC(C)C)C(=O)N[C@@H](CCCNC(=N)NC)C(=O)N[C@@H](Cc1c[nH]c2ccccc12)C(N)=O)[C@@H](C)O` [YA-156, Palm-PEG8-Gly-Gly-(D-Tyr)-Hyp-Asn-Thr-Phe-azaGly-Leu-Arg(Me)-Trp-NH2] ({Palmitoyl-PEG8}-GG[dY][Hyp]NTF[azaGly]L[Arg(Me)]W-NH2): 44.4 h and 0.045 nM.

Turning to `CCCCCCCCCCCCCCCC(=O)NCCOCCOCCOCCOCCOCCOCCOCCOCCC(=O)NCCCC[C@H](NC(C)=O)C(=O)NCC(=O)NCC(=O)N[C@H](Cc1ccc(O)cc1)C(=O)N1C[C@H](O)C[C@H]1C(=O)N[C@@H](CC(N)=O)C(=O)N[C@H](C(=O)N[C@@H](Cc1ccccc1)C(=O)NNC(=O)N[C@@H](CC(C)C)C(=O)N[C@@H](CCCNC(=N)NC)C(=O)N[C@@H](Cc1c[nH]c2ccccc12)C(N)=O)[C@@H](C)O` [YA-157, Ac-Lys(Palm-PEG8)-Gly-Gly-(D-Tyr)-Hyp-Asn-Thr-Phe-azaGly-Leu-Arg(Me)-Trp-NH2] (Ac-K([PEG8-Palmitoyl])GG[dY][Hyp]NTF[azaGly]L[Arg(Me)]W-NH2), in series [1], the half-life at 500 ng/ml is 6.67 h. Also, the EC50 in series [2] (setting [3]) turned out to be 0.03 nM. `CNC(=N)NCCC[C@H](NC(=O)[C@H](CC(C)C)NC(=O)NNC(=O)[C@H](Cc1ccccc1)NC(=O)[C@@H](NC(=O)[C@H](CC(N)=O)NC(=O)C1(NC(=O)[C@@H](Cc2ccc(O)cc2)NC(C)=O)CCCCC1)[C@@H](C)O)C(=O)N[C@@H](Cc1c[nH]c2ccccc12)C(N)=O` [YA-172, Ac-D-Tyr-A6c-Asn-Thr-Phe-azaGly-Leu-Arg(Me)-Trp-NH2] (Ac-[dY][Ac6c]NTF[azaGly]L[Arg(Me)]W-NH2): the half-life at 500 ng/ml in series [1] is 9.42 h. Regarding `CNC(=N)NCCC[C@H](NC(=O)[C@H](CC(C)C)NC(=O)C1(NC(=O)[C@H](Cc2ccccc2)NC(=O)[C@@H](NC(=O)[C@H](CC(N)=O)NC(=O)[C@@H]2C[C@@H](O)CN2C(=O)[C@@H](Cc2ccc(O)cc2)NC(C)=O)[C@@H](C)O)CCCCC1)C(=O)N[C@@H](Cc1c[nH]c2ccccc12)C(N)=O` [YA-175, Ac-D-Tyr-Hyp-Asn-Thr-Phe-A6c-Leu-Arg(Me)-Trp-NH2] (Ac-[dY][Hyp]NTF[Ac6c]L[Arg(Me)]W-NH2), the half-life at 500 ng/ml in series [1] was 2.05 h. For the same compound, the EC50 in series [2] (setting [3]) was 0.132 nM.

For the compound `CNC(=N)NCCC[C@H](NC(=O)[C@H](CC(C)C)NC(=O)NNC(=O)[C@H](Cc1ccccc1)NC(=O)[C@@H](NC(=O)[C@H](CC(N)=O)NC(=O)[C@@H]1CC(F)(F)CN1C(=O)[C@@H](Cc1ccc(Cl)cc1Cl)NC(C)=O)[C@@H](C)O)C(=O)N[C@@H](Cc1c[nH]c2ccccc12)C(N)=O` [YA-180, Ac-[D-Phe(2,4-DiCl)]-Pro(diF)-Asn-Thr-Phe-azaGly-Leu-Arg(Me)-Trp-NH2] (Ac-[dPhe(2,4-Cl2)][Pro(4,4-F2)]NTF[azaGly]L[Arg(Me)]W-NH2), in series [1], the half-life at 500 ng/ml was 9.63 h. As to `CNC(=N)NCCC[C@H](NC(=O)[C@H](CC(C)C)NC(=O)NNC(=O)[C@H](Cc1ccccc1)NC(=O)[C@@H](NC(=O)[C@H](CC(N)=O)NC(=O)[C@@H]1CCCCN1C(=O)[C@@H](Cc1ccc(Cl)cc1Cl)NC(C)=O)[C@@H](C)O)C(=O)N[C@@H](Cc1c[nH]c2ccccc12)C(N)=O` [YA-182, Ac-[D-Phe(2,4-DiCl)]—(S-Pip)-Asn-Thr-Phe-azaGly-Leu-Arg(Me)-Trp-NH2] (Ac-[dPhe(2,4-Cl2)][Pip]NTF[azaGly]L[Arg(Me)]W-NH2), the half-life at 500 ng/ml in series [1] was 5.32 h. The EC50 in series [2] (setting [3]) was determined as 0.021 nM. For `CNC(=N)NCCC[C@H](NC(=O)[C@H](CC(C)C)NC(=O)C1(NC(=O)[C@H](Cc2ccccc2)NC(=O)[C@@H](NC(=O)[C@H](CC(N)=O)NC(=O)[C@@H]2CC(F)(F)CN2C(=O)[C@@H](Cc2ccco2)NC(C)=O)[C@@H](C)O)CCCCC1)C(=O)N[C@@H](Cc1c[nH]c2ccccc12)C(N)=O` [YA-201, Ac-(D-2Fua)-Pro(diF)-Asn-Thr-Phe-A6c-Leu-Arg(Me)-Trp-NH2] (Ac-[dAla(2-furyl)][Pro(4,4-F2)]NTF[Ac6c]L[Arg(Me)]W-NH2) the same measures were 2.65 h and 0.39 nM. On to `CCCCCCCCCCCC(=O)NCCOCCOCCOCCOCCOCCSC1CC(=O)N(CCCC(=O)N[C@H](Cc2ccc(O)cc2)C(=O)N2C[C@H](O)C[C@H]2C(=O)N[C@@H](CC(N)=O)C(=O)N[C@H](C(=O)N[C@@H](Cc2ccccc2)C(=O)NNC(=O)N[C@@H](CC(C)C)C(=O)N[C@@H](CCCNC(=N)NC)C(=O)N[C@@H](Cc2c[nH]c3ccccc23)C(N)=O)[C@@H](C)O)C1=O` (stereo partly drawn) [YA-325, Dodecanoy-(NH-PEG5-CH2CH2S)-(maleimide-butanoyl-)-(D-Tyr)-Hyp-Asn-Thr-Phe-azaG-Leu-Arg(Me)-Trp-NH2] (X1-[dY][Hyp]NTF[azaGly]L[Arg(Me)]W-NH2), for which, in series [1], the half-life at 500 ng/ml was 4.26 h. Still for that read-out and setting: with `CCCCCCCCCCCC(=O)NCCOCCOCCOCCOCCOCCn1cc(CC(=O)N[C@H](Cc2ccc(O)cc2)C(=O)N2C[C@H](O)C[C@H]2C(=O)N[C@@H](CC(N)=O)C(=O)N[C@H](C(=O)N[C@@H](Cc2ccccc2)C(=O)NNC(=O)N[C@@H](CC(C)C)C(=O)N[C@@H](CCCNC(=N)NC)C(=O)N[C@@H](Cc2c[nH]c3ccccc23)C(N)=O)[C@@H](C)O)nn1` [YA-326, Dodecanoyl-NH-PEG5-1,2,3-Triazole-Cyclic-Butanoyl-(D-Tyr)-Hyp-Asn-Thr-Phe-Azag-Leu-Arg(Me)-Trp-NH2] (X2-[dY][Hyp]NTF[azaGly]L[Arg(Me)]W-NH2) the figure was 4.97 h; with `C=CC[C@H](NC(=O)[C@H](Cc1ccccc1)NC(=O)[C@@H](NC(=O)[C@H](CC(N)=O)NC(=O)[C@@H]1C[C@@H](O)CN1C(=O)[C@@H](Cc1ccc(O)cc1)NC(C)=O)[C@@H](C)O)C(=O)N[C@@H](CC(C)C)C(=O)N[C@@H](CCCNC(=N)NC)C(=O)N[C@@H](Cc1c[nH]c2ccccc12)C(N)=O` [YA-350, Ac-(D-Tyr)-Hyp-Asn-Thr-Phe-Alg-Leu-Arg(Me)-Trp-NH2] (Ac-[dY][Hyp]NTF[AllylGly]L[Arg(Me)]W-NH2), 0.22 h.
